# Compound: Nc1ncnc2c1ncn2[C@@H]1O[C@H](COP(=O)(O)OP(=O)(O)OP(=O)(O)O)[C@@H](O)[C@H]1O [adenosine triphosphate]
# Assay: pEC50 of ATP-induced change in protein thermal stability (2D-TPP)
# Procedure: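 2D thermal proteome profiling in mechanically disrupted Jurkat crude lysate. Lysate was treated 10 min at room temperature with Na-ATP (0, 0.005, 0.05, 0.5, 2 mM), heated to 12 temperatures (42-63.9 °C) for 3 min, and soluble protein was quantified by TMT10 LC-MS/MS. pEC50 is the median over replicates of dose-response fits at the lowest temperature showing a fold change of at least 1.5 (FDR-controlled hits).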
# Sequence of UniProt Q92922 (Q92922 whole entry): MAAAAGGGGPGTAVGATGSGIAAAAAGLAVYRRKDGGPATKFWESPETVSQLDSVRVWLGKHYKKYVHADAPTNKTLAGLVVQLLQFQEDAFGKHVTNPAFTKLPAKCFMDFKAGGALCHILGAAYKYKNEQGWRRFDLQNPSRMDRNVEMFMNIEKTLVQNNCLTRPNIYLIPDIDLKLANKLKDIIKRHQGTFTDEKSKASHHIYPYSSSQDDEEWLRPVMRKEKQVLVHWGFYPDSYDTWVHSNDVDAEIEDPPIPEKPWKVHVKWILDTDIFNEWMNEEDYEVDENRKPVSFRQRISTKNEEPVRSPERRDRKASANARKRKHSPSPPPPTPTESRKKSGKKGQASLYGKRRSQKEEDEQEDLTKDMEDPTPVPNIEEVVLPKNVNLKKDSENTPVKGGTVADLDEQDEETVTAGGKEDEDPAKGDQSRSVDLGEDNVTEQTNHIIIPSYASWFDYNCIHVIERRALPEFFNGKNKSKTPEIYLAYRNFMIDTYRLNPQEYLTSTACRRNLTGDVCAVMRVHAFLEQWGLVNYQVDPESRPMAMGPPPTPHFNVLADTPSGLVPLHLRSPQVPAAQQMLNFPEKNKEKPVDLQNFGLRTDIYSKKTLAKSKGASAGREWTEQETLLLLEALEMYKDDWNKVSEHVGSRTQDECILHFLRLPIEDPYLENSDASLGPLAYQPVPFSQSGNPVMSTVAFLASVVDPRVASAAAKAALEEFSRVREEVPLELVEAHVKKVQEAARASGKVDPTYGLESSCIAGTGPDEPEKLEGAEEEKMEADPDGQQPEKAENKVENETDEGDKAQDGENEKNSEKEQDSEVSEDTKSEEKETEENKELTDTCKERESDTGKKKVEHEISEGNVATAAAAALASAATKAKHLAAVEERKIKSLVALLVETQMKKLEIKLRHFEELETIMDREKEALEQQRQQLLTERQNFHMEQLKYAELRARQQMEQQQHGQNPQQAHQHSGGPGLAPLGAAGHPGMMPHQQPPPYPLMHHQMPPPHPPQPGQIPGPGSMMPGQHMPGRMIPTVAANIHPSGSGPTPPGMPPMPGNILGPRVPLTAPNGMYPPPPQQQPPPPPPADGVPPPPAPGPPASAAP
# Sequence of UniProt Q8TBX8 (Q8TBX8 whole entry): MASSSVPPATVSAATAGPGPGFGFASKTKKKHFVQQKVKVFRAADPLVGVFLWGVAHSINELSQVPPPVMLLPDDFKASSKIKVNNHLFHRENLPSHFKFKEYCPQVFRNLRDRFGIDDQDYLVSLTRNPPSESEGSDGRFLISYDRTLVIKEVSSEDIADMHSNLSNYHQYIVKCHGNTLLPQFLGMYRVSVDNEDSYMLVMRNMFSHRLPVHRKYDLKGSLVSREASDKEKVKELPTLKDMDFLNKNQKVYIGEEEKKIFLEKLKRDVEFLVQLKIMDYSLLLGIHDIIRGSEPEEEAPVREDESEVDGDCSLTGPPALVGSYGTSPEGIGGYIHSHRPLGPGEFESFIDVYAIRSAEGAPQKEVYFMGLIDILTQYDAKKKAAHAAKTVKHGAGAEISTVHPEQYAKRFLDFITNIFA
# Sequence of UniProt Q02218 (Q02218 whole entry): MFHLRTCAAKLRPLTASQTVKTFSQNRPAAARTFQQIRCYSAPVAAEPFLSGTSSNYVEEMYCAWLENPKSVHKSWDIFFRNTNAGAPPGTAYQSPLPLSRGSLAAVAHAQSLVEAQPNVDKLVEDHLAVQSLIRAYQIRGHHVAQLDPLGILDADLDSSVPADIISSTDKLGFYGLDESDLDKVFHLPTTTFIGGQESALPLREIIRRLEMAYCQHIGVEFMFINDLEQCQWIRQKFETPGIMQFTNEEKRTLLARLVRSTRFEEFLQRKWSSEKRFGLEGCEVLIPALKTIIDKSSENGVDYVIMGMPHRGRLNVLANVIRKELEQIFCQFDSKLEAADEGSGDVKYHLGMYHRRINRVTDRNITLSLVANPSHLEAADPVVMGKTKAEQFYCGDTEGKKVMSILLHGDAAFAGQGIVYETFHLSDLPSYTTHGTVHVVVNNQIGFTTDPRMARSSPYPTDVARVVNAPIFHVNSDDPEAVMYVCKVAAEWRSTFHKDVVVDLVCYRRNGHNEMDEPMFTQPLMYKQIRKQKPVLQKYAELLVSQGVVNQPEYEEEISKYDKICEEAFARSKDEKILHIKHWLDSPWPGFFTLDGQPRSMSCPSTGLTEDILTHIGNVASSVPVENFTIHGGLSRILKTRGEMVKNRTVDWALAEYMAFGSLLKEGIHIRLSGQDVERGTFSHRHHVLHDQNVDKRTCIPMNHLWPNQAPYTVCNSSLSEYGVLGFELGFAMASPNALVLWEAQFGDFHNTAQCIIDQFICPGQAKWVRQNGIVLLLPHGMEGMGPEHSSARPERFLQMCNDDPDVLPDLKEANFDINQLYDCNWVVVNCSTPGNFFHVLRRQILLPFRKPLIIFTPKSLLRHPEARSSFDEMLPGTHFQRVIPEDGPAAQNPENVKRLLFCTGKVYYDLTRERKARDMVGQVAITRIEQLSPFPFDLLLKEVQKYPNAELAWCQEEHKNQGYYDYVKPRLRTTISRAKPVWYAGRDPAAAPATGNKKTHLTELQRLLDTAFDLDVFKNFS
# Sequence of UniProt O75340 (O75340 whole entry): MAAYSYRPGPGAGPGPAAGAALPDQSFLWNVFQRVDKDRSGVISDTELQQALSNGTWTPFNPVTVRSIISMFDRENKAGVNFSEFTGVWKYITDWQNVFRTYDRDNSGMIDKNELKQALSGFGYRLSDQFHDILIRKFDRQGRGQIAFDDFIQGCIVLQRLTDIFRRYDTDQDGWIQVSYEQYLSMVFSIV
# Sequence of UniProt Q9ULI0 (Q9ULI0 whole entry): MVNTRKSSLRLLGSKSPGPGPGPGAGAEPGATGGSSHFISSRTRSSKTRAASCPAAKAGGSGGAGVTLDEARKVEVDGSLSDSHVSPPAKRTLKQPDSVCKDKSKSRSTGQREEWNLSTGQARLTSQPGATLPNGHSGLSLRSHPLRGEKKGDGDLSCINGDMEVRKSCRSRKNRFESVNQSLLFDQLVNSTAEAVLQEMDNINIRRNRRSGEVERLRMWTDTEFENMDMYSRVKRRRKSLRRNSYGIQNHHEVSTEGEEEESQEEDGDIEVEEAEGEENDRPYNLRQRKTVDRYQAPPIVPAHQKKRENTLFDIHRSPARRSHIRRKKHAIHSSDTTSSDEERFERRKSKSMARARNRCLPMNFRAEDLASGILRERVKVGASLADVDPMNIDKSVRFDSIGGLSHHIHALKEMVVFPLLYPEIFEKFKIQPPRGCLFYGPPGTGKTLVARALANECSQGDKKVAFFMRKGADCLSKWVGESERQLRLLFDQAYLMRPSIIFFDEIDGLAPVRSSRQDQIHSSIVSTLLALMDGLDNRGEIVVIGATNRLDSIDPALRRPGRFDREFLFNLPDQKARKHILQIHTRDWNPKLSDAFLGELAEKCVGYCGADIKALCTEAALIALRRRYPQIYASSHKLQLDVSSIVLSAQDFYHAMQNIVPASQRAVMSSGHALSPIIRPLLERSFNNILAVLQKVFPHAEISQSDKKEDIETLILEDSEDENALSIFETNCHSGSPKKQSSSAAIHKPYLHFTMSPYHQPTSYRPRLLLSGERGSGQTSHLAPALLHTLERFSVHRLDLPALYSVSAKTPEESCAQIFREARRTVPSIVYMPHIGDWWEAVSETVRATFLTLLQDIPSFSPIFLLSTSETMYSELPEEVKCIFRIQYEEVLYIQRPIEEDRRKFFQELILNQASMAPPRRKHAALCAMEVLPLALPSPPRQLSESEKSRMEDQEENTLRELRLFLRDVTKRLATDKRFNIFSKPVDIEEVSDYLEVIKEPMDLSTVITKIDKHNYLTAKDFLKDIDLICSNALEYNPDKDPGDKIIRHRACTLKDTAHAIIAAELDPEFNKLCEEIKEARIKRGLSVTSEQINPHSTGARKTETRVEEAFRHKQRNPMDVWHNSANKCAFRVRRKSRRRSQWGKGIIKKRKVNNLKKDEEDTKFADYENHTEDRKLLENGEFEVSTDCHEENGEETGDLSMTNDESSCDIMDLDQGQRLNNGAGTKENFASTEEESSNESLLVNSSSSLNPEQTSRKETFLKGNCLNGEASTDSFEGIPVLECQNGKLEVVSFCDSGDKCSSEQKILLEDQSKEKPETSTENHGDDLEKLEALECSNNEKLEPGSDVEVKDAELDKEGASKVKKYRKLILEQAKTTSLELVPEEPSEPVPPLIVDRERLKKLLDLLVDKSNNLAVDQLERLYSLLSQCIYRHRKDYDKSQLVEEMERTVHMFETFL
# Sequence of UniProt P42025 (P42025 whole entry): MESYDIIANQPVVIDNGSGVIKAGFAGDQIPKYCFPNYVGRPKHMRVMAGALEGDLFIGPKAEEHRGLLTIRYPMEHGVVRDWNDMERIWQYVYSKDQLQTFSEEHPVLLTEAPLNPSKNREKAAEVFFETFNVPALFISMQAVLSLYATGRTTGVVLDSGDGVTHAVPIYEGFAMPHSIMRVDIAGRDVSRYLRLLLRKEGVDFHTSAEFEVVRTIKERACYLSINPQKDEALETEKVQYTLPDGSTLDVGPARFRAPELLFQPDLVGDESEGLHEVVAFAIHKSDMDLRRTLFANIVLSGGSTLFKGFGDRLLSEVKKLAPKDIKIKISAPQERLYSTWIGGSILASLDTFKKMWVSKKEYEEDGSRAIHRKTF
# Sequence of UniProt Q14318 (Q14318 whole entry): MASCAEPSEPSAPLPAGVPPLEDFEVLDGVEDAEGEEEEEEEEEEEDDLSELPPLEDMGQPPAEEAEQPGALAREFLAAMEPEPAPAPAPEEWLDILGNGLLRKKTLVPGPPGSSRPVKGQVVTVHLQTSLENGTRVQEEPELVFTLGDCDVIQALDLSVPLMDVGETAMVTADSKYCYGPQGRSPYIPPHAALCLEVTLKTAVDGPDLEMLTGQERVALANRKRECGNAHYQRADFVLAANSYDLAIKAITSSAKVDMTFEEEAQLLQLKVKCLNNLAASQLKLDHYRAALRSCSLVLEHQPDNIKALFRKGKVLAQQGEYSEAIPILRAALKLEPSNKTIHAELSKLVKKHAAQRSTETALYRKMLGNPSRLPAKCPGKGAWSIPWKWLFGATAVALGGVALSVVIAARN
row,pEC50,Target
1,< 2.7,PDCD6 (effect direction: destabilized) (UniProt O75340)
2,3.38,CLN5 (effect direction: stabilized) (UniProt O75503)
3,< 2.7,NUP210 (effect direction: stabilized) (UniProt Q8TEM1)
4,3.85,LRWD1 (effect direction: stabilized) (UniProt Q9UFC0)
5,3.95,KLC1 (effect direction: stabilized) (UniProt Q07866)
6,< 2.7,SNX5 (effect direction: stabilized) (UniProt Q9Y5X3)
7,3.88,UniProt P62277 (effect direction: destabilized)
8,3.7,RIOK3 (effect direction: stabilized) (UniProt O14730)
9,< 2.7,PPP1R7 (effect direction: stabilized) (UniProt Q15435)
10,3.74,CHD1L (effect direction: stabilized) (UniProt Q86WJ1)
11,4.09,TOR1A (effect direction: stabilized) (UniProt O14656)
12,3.06,ATAD2B (effect direction: destabilized) (UniProt Q9ULI0)
13,< 2.7,UBA2 (effect direction: stabilized) (UniProt Q9UBT2)
14,4.23,ACTR1B (effect direction: stabilized) (UniProt P42025)
15,< 2.7,AHSA1 (effect direction: stabilized) (UniProt O95433)
16,3.49,PES1 (effect direction: destabilized) (UniProt O00541)
17,3.17,PDCD10 (effect direction: stabilized) (UniProt Q9BUL8)
18,3,UniProt P60891 (effect direction: stabilized)
19,3.13,CDK2 (effect direction: stabilized) (UniProt P24941)
20,3.06,UniProt O60524 (effect direction: destabilized)
21,< 2.7,USP47 (effect direction: stabilized) (UniProt Q96K76)
22,3.3,PPT1 (effect direction: stabilized) (UniProt P50897)
23,< 2.7,OXA1L (effect direction: stabilized) (UniProt Q15070)
24,3.31,TRMU (effect direction: stabilized) (UniProt O75648)

row,pEC50,Target
1,< 2.7,ANP32E (effect direction: stabilized) (UniProt Q9BTT0)
2,< 2.7,MDP1 (effect direction: destabilized) (UniProt Q86V88)
3,2.73,TSTA3 (effect direction: stabilized) (UniProt Q13630)
4,3.13,GRAMD4 (effect direction: stabilized) (UniProt Q6IC98)
5,3.14,UniProt P45984 (effect direction: stabilized)
6,< 2.7,ATIC (effect direction: stabilized) (UniProt P31939)
7,2.79,UniProt P68431 (effect direction: stabilized)
8,3.92,ASPSCR1 (effect direction: stabilized) (UniProt Q9BZE9)
9,3.51,RRP15 (effect direction: destabilized) (UniProt Q9Y3B9)
10,< 2.7,STXBP2 (effect direction: stabilized) (UniProt Q15833)
11,2.92,UTP15 (effect direction: destabilized) (UniProt Q8TED0)
12,2.83,GPN1 (effect direction: destabilized) (UniProt Q9HCN4)
13,4.01,AK2 (effect direction: stabilized) (UniProt P54819)
14,< 2.7,RABGAP1 (effect direction: stabilized) (UniProt Q9Y3P9)
15,4.03,PEX6 (effect direction: stabilized) (UniProt Q13608)
16,3.43,SMARCC1 (effect direction: stabilized) (UniProt Q92922)
17,< 2.7,PPP2R1A (effect direction: stabilized) (UniProt P30153)
18,4.49,MRPL19 (effect direction: destabilized) (UniProt P49406)
19,2.97,UniProt Q9UPN7 (effect direction: stabilized)
20,< 2.7,CLIC1 (effect direction: stabilized) (UniProt O00299)
21,3.04,HNRNPR (effect direction: stabilized) (UniProt O43390)
22,4.15,ATP11B (effect direction: stabilized) (UniProt Q9Y2G3)
23,3.21,RSBN1L (effect direction: stabilized) (UniProt Q6PCB5)
24,2.74,ISG15 (effect direction: stabilized) (UniProt P05161)

row,pEC50,Target
1,3.33,UniProt O96017 (effect direction: stabilized)
2,3.21,TARDBP (effect direction: stabilized) (UniProt Q13148)
3,3.24,UniProt O15530 (effect direction: stabilized)
4,3.84,UniProt Q9BXW7 (effect direction: destabilized)
5,4.55,UniProt P62191 (effect direction: stabilized)
6,3.15,PPM1B (effect direction: destabilized) (UniProt O75688)
7,< 2.7,GLRX3 (effect direction: stabilized) (UniProt O76003)
8,< 2.7,NUDC (effect direction: stabilized) (UniProt Q9Y266)
9,< 2.7,PRDX6 (effect direction: stabilized) (UniProt P30041)
10,3.66,UniProt Q9BQ61 (effect direction: destabilized)
11,3.45,POLR2E (effect direction: destabilized) (UniProt P19388)
12,3.11,UniProt P83731 (effect direction: destabilized)
13,3.69,PLK1 (effect direction: stabilized) (UniProt P53350)
14,3.1,PAF1 (effect direction: stabilized) (UniProt Q8N7H5)
15,2.77,TRIM21 (effect direction: stabilized) (UniProt P19474)
16,< 2.7,HUWE1 (effect direction: stabilized) (UniProt Q7Z6Z7)
17,3.04,UniProt Q8TBX8 (effect direction: stabilized)
18,3.16,ACLY (effect direction: stabilized) (UniProt P53396)
19,3.3,OGDH (effect direction: stabilized) (UniProt Q02218)
20,< 2.7,GPS1 (effect direction: stabilized) (UniProt Q13098)
21,3.47,FARSA (effect direction: stabilized) (UniProt Q9Y285)
22,3.59,LARS2 (effect direction: stabilized) (UniProt Q15031)
23,2.89,UniProt P84098 (effect direction: destabilized)
24,2.9,UniProt Q8N163 (effect direction: stabilized)

row,pEC50,Target
1,2.98,CINP (effect direction: stabilized) (UniProt Q9BW66)
2,3.25,UniProt O43598 (effect direction: stabilized)
3,3.22,SND1 (effect direction: stabilized) (UniProt Q7KZF4)
4,3.03,UniProt Q14289 (effect direction: stabilized)
5,3.08,RABGEF1 (effect direction: stabilized) (UniProt Q9UJ41)
6,3.07,UniProt P61956 (effect direction: destabilized)
7,< 2.7,ENO1 (effect direction: destabilized) (UniProt P06733)
8,3.62,MTHFSD (effect direction: stabilized) (UniProt Q2M296)
9,< 2.7,ARID1A (effect direction: stabilized) (UniProt O14497)
10,3.44,NUBP1 (effect direction: stabilized) (UniProt P53384)
11,2.77,ROCK1 (effect direction: stabilized) (UniProt Q13464)
12,2.79,UniProt Q7Z3D6 (effect direction: destabilized)
13,3.53,MCM3 (effect direction: stabilized) (UniProt P25205)
14,3.21,NFATC2 (effect direction: stabilized) (UniProt Q13469)
15,3.36,FKBP8 (effect direction: stabilized) (UniProt Q14318)
16,3.27,UniProt O95071 (effect direction: stabilized)
17,2.79,SF3A1 (effect direction: stabilized) (UniProt Q15459)
18,< 2.7,VPS35 (effect direction: stabilized) (UniProt Q96QK1)
19,< 2.7,FKBP5 (effect direction: stabilized) (UniProt Q13451)
20,3.33,UniProt P62266 (effect direction: destabilized)
21,3.06,PPP3CB (effect direction: destabilized) (UniProt P16298)
